The source of these data is patent publication US9682148B2, “Solid oral dosage form of testosterone derivative” (Solural Pharma APS, priority 2012, dated 2017).

Series [1] can be described thus: Estimate of maximal amount of lymphatic absorbed TU. The note with it: estimated: 25% of solubility x 120 mg/g x 3.5 g triglyceride/10 h, formulation of 600 mg fat. An excerpt: The maximal amount of lymphatic absorbed TU can be estimated from the solubility of Testosterone Undecanoate in triglyceride and the transported triglyceride (Int. J. Pharm., vol. 34, 175-178, 1986).

For series [2] the following is noted: cited from earlier work.

As for `CCCCCCCCCCC(=O)O[C@H]1CC[C@H]2[C@@H]3CCC4=CC(=O)CC[C@]4(C)[C@H]3CC[C@]12C` [Testosterone Undecanoate], the “maximal amount of lymphatic absorbed TU” value in series [1] is ~100 mg. For the same compound, the solubility in triglyceride in series [2] is 120 mg/g.
